This is an account of results in patent US11098294B2, “Anti-inflammatory peptides and composition comprising same” (GemVax & KAEL Co., Ltd., priority 2012, dated 2021).

In assay [1] the test system is TNF-α. The assay is described as follows: TNF-α inhibitory effect in PBMC-derived monocyte (ELISA). To be noted: PBMC-derived monocytes, 4 μM peptide 2 hrs; for TNF-α inhibiting effect compared to the control group treated with only LPS: LPS 10 ng/ml 2 hours; for TNF-α inhibiting effect compared to the group treated with LPS and estrogen: LPS 10 ng/ml, estrogen 20 nM. Type of assay: cell-based, human. As for the experimental part:
PBMC (peripheral blood mononuclear cells) layer was separated from blood samples (50 ml) collected in healthy subjects using Biocoll Separating Solution (Biochrom AG, Berlin, Germany). The collected PBMC were enriched in RPMI 1640 medium containing 20% human serum for 30 mins, and then transferred to 100-mm polystyeren cell culture plate coated with human serum for incubation for 2 hrs at 37° C., 5% CO^2 incubator. Monocytes were detached from the bottom of the plate using cold PBS, and incubated to reach the number of 1×10^5 cell/well in 96-well plate with RPMI 1640 medium (supplemented with penicillin-streptomycin; 100 mg/ml, human serum; 20%) over night.
ELISA was performed to find out how the peptides of the PEP RIA series influence TNF-α level. PBMC-derived monocytes were incubated to reach the number of 1×10^5 cells per well in a 96-well plate and then treated with LPS (lipopolysaccharide; 10 ng/ml, Sigma) for 2 hours. To the monocytes that were washed three times with PBS, OPTI-MEM culture medium was added to induce cell starvation for an hour, 4 μM of the peptide was taken out and incubated for 2 hours. There were three negative control groups. The first group was not treated with anything. The second group that was treated with estrogen (in this experiment, estradiol was used as a kind of estrogen). The third group was treated with LPS (10 ng/ml) or with LPS (10 ng/ml) as well as estrogen (20 nM). PEP1 that was confirmed to have TNF-α inhibiting activity was used as a positive control to measure TNF-α inhibiting activity. After incubation, TNF-α was measured by following the ELISA kit manual (R&D, Minneapolis, Minn., USA). The details of quantification method can be found in Experiment 2.2 of Example 1.
Using the method stated above, Peptides with TNF-α inhibiting effect were screened. PBMC-derived monocytes were stimulated with LPS (10 ng/ml), which is endotoxin, for 2 hours and were induced to starve by adding OPTI-MEM for 1 hour. After that, 4 μM of 161 peptides were treated and incubated for 2 hrs. The amount of TNF-α in the cell culture medium was measured using ELISA, and the peptides with TNF-α inhibiting effect were screened by comparing to the negative and positive controls (FIG. 1 to FIG. 16).

Assay [2] deals with TNF-α. The assay is described as follows: TNF-α level in THP1 cell line differentiated by PMA (ELISA). Type of assay: cell-based, human. To be noted: THP-1 differentiated by PMA, 1 μM peptide 1 hour; for reduction of TNF-α level compared to control group treated only with LPS: LPS 10 ng/ml 2 hours; for reduction of expression level of TNF-α compared to group treated with LPS and estrogen: LPS 10 ng/ml. As for the experimental part: Experiment was carried out using THP-1 cell line (American Type Culture Collection (ATCC), Manassas, Va., USA) which is human acute monocytic leukemia.
THP-1 cells were incubated to reach the number of 1×10^5 cells per well in a 96-well plate with RPMI 1640 medium for 24 hrs, followed by addition of […] of PMA (phorbol 12-myristate 13-acetate) for the differentiation into macrophage. After differentiation of THP-1 into macrophage by PMA for a day, LPS was treated for 2 hrs and washed off. Starvation for an hour and PEP1 treatment followed.
THP-1 cell differentiated by PMA was treated with LPS (lipopolysaccharide; 10 ng/ml, Sigma) for 2 hours, followed by 2 times washes with PBS. To the cells, OPTI-MEM culture medium was added to induce cell starvation for an hour, and 1 μM of 161 peptides was taken out and incubated for an hour. After incubation, TNF-α level was measured by using the ELISA kit and the peptides which reduce the TNF-α level were screened (FIG. 17 to FIG. 35).
A general note: An ELISA detects its analyte on a solid surface through an enzyme-linked reagent.

For the sequence “AERLTSRVKALFSVL (listed as Homo sapiens) [SEQ ID NO: 9]”, the “TNF-α inhibiting effect compared to the control group treated with only LPS” value in the assay on TNF-α [1] is listed as “showed TNF-α inhibiting effect”. In addition, in the assay on TNF-α [2], the “reduction of TNF-α level compared to control group treated only with LPS” value (“reduction of TNF-α level” for short) was “appeared to reduce the TNF-α level”; the “reduction of expression level of TNF-α compared to group treated with LPS and estrogen” value (“reduction of expression level of TNF-α” for short) is listed as “reduce the expression level of TNF-α”.

For the sequence “AQCPYGVLLKTHCPLRAAVT (listed as Homo sapiens) [SEQ ID NO: 68]”, the “reduction of TNF-α level” value in the assay with TNF-α [2] is “appeared to reduce the TNF-α level”. Same read-out and setting: in the case of “CGPPLYQLGAATQARPPPHA (listed as Homo sapiens) [SEQ ID NO: 114]” it was “appeared to reduce the TNF-α level”. On the same count and under the same terms, to “DEALGGTAFVQMPAHGLFPW (listed as Homo sapiens) [SEQ ID NO: 151]” belongs “appeared to reduce the TNF-α level”. For the sequence “EDTDPRRLVQLLRQHSSPWQ (listed as Homo sapiens) [SEQ ID NO: 70]”, the “TNF-α inhibiting effect compared to the group treated with LPS and estrogen” value with TNF-α [1] is “showed TNF-α inhibiting effect”. Also, in the assay on TNF-α [2], the “reduction of TNF-α level” value is “appeared to reduce the TNF-α level”.

As to “FFLRVISDTASLCYSILKAK (listed as Homo sapiens) [SEQ ID NO: 157]”, in the assay with TNF-α [2], the “reduction of expression level of TNF-α” value is on record as “reduce the expression level of TNF-α”.

In the case of “FHQQVWKNPTFFLRVISDTA (listed as Homo sapiens) [SEQ ID NO: 99]”, in the assay with TNF-α [1], the “TNF-α inhibiting effect compared to the group treated with LPS and estrogen” value is “showed TNF-α inhibiting effect”. Take “GASVLGLDDI (listed as Homo sapiens) [SEQ ID NO: 13]”: in the assay with TNF-α [2], the “reduction of TNF-α level” value is given as “appeared to reduce the TNF-α level”; the “reduction of expression level of TNF-α” value is on record as “reduce the expression level of TNF-α”. Turning to “GLLGASVLG (listed as Homo sapiens) [SEQ ID NO: 29]”, the “TNF-α inhibiting effect compared to the group treated with LPS and estrogen” value in the assay with TNF-α [1] is “showed TNF-α inhibiting effect”. In addition, in the assay with TNF-α [2], the “reduction of TNF-α level” value is “appeared to reduce the TNF-α level”; the “reduction of expression level of TNF-α” value is “reduce the expression level of TNF-α”.

Turning to “GTRHSHPSVGRQHHAGPPST (listed as Homo sapiens) [SEQ ID NO: 120]”, the “TNF-α inhibiting effect compared to the group treated with LPS and estrogen” value in the assay on TNF-α [1] is given as “showed TNF-α inhibiting effect”. As to “GVPLGLPSPGARRRGGSASR (GVPLGLPAPGARRRGGSASR; listed as Homo sapiens) [SEQ ID NO: 116]”, the “TNF-α inhibiting effect compared to the control group treated with only LPS” value in the assay with TNF-α [1] is reported as “showed TNF-α inhibiting effect”. In the case of “LFSVLNYERARRPGLLGASV (listed as Homo sapiens) [SEQ ID NO: 81]”, the “TNF-α inhibiting effect compared to the group treated with LPS and estrogen” value in the assay on TNF-α [1] is “showed TNF-α inhibiting effect”. The same measure, in the same setting: in the case of “LGLDDIHRAWRTFVLRVRAQ (listed as Homo sapiens) [SEQ ID NO: 82]” it was “showed TNF-α inhibiting effect”; in that of “LKRVQLRELSEAEVRQ (listed as Homo sapiens) [SEQ ID NO: 47]”, “showed TNF-α inhibiting effect”.

Turning to “LLGASVLGL (listed as Homo sapiens) [SEQ ID NO: 11]”, the “TNF-α inhibiting effect compared to the control group treated with only LPS” value with TNF-α [1] was “showed TNF-α inhibiting effect”. Consider “LLVTPHLTHAKTFLRTLVRG (listed as Homo sapiens) [SEQ ID NO: 149]”, for which, in the assay on TNF-α [1], the “TNF-α inhibiting effect compared to the control group treated with only LPS” value was “showed TNF-α inhibiting effect”; the “TNF-α inhibiting effect compared to the group treated with LPS and estrogen” value is reported as “showed TNF-α inhibiting effect”. Moreover, the “reduction of TNF-α level” value in the assay on TNF-α [2] is reported as “appeared to reduce the TNF-α level”. Regarding “MPRAPRCRAVRSLLRSHYRE (listed as Homo sapiens) [SEQ ID NO: 48]”, the “TNF-α inhibiting effect compared to the group treated with LPS and estrogen” value in the assay with TNF-α [1] is “showed TNF-α inhibiting effect”.

As for “NKLFAGIRRDGLLLRLVDDF (listed as Homo sapiens) [SEQ ID NO: 148]”, in the assay with TNF-α [1], the “TNF-α inhibiting effect compared to the control group treated with only LPS” value is “showed TNF-α inhibiting effect”; the “TNF-α inhibiting effect compared to the group treated with LPS and estrogen” value is reported as “showed TNF-α inhibiting effect”. Also, the “reduction of TNF-α level” value in the assay with TNF-α [2] is “appeared to reduce the TNF-α level”. As for “NRGFKAGRNMRRKLFGVLRL (listed as Homo sapiens) [SEQ ID NO: 96]”, in the assay on TNF-α [1], the “TNF-α inhibiting effect compared to the control group treated with only LPS” value was “showed TNF-α inhibiting effect”; the “TNF-α inhibiting effect compared to the group treated with LPS and estrogen” value is “showed TNF-α inhibiting effect”. As for “QMPAHGLFPWCGLLLDTRTL (listed as Homo sapiens) [SEQ ID NO: 94]”, the “reduction of TNF-α level” value in the assay with TNF-α [2] is given as “appeared to reduce the TNF-α level”. As to “QWLCHQAFLLKLTRHRVTTV (QWLCHQAFLLKLTRHRVTYV; listed as Homo sapiens) [SEQ ID NO: 159]”, in the assay on TNF-α [2], the “reduction of expression level of TNF-α” value is “reduce the expression level of TNF-α”. Same read-out and setting: in the case of “RFHACVLQLPFHQQVWKNPT (listed as Homo sapiens) [SEQ ID NO: 156]” it was “reduce the expression level of TNF-α”.

For the sequence “RFMCHHAVRIRGKSYVQCQG (listed as Homo sapiens) [SEQ ID NO: 146]”, in the assay on TNF-α [1], the “TNF-α inhibiting effect compared to the control group treated with only LPS” value is listed as “showed TNF-α inhibiting effect”; the “TNF-α inhibiting effect compared to the group treated with LPS and estrogen” value is reported as “showed TNF-α inhibiting effect”. Also, the “reduction of TNF-α level” value in the assay on TNF-α [2] is reported as “appeared to reduce the TNF-α level”.

For “RLPQRYWQMRPLFLELLGNH (listed as Homo sapiens) [SEQ ID NO: 67]”, the “reduction of TNF-α level” value in the assay on TNF-α [2] was “appeared to reduce the TNF-α level”. As for “RTFVLRVRAQDPPPE (listed as Homo sapiens) [SEQ ID NO: 7]”, in the assay on TNF-α [2], the “reduction of TNF-α level” value is recorded as “appeared to reduce the TNF-α level”; the “reduction of expression level of TNF-α” value is “reduce the expression level of TNF-α”. On to “RTRGPSDRGFCVVSPARPAE (listed as Homo sapiens) [SEQ ID NO: 61]”, for which the “TNF-α inhibiting effect compared to the group treated with LPS and estrogen” value in the assay with TNF-α [1] is listed as “showed TNF-α inhibiting effect”. Consider “SGPRRRLGCERAWMHSVREA (SGPRRRLGCERAWNHSVREA; listed as Homo sapiens) [SEQ ID NO: 115]”, for which the “TNF-α inhibiting effect compared to the control group treated with only LPS” value in the assay with TNF-α [1] was “showed TNF-α inhibiting effect”. For “SRPPRPWDTPCPPVYAETKH (listed as Homo sapiens) [SEQ ID NO: 121]”, in the assay on TNF-α [1], the “TNF-α inhibiting effect compared to the group treated with LPS and estrogen” value is recorded as “showed TNF-α inhibiting effect”. “SVLGLDDIH (listed as Homo sapiens) [SEQ ID NO: 30]”: in the assay on TNF-α [2], the “reduction of TNF-α level” value is given as “appeared to reduce the TNF-α level”; the “reduction of expression level of TNF-α” value is “reduce the expression level of TNF-α”.

For “SVLNYERARR (listed as Homo sapiens) [SEQ ID NO: 15]”, in the assay with TNF-α [2], the “reduction of TNF-α level” value is on record as “appeared to reduce the TNF-α level”; the “reduction of expression level of TNF-α” value is listed as “reduce the expression level of TNF-α”. “VLGLDDIHRA (listed as Homo sapiens) [SEQ ID NO: 12]”: in the assay on TNF-α [2], the “reduction of TNF-α level” value is “appeared to reduce the TNF-α level”; the “reduction of expression level of TNF-α” value was “reduce the expression level of TNF-α”. With “WMPGTPRRLPRLPQRYWQMR (listed as Homo sapiens) [SEQ ID NO: 124]”, the “TNF-α inhibiting effect compared to the control group treated with only LPS” value in the assay on TNF-α [1] is reported as “showed TNF-α inhibiting effect”.

Take “YERARRPGL (listed as Homo sapiens) [SEQ ID NO: 10]”: in the assay with TNF-α [2], the “reduction of TNF-α level” value was “appeared to reduce the TNF-α level”; the “reduction of expression level of TNF-α” value is “reduce the expression level of TNF-α”.
